US12590126B2, “Compounds for selective disruption of protein-protein interactions” (SyntheX, Inc., priority 2017, dated 2026)
Like-named read-outs stand apart in the source and are kept apart here. Where a SMILES comes first, the peptide text is derived from it. [ ]: non-standard residue; d: D form. 2Nal = N[C@@H](Cc1ccc2ccccc2c1)C(=O)O; dNle = CCCC[C@@H](N)C(=O)O; βAla = NCCC(=O)O

Tests used:
SSP-25 cells = assay: xCELLigence cell death assay in SSP-25 cells (cellular assay for RAD51 inhibition); assay type: cell-based; conditions: concentration gradient added at 20 hour mark, only values with R^>0.85 shown
fresh human RBCs = assay type: cell-based; conditions: red cells of human, 1 h, 250
Procedure, shortened: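 Washed RBCs from O+ donors (K2EDTA), diluted to 2% in PBS, incubated with compounds at various concentrations for 1 hr at 37 C. Supernatant absorbance read at 450 or 405 nm after centrifugation; % hemolysis relative to 1% Triton X-100.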

A549 cells [1] = assay: A549 cell growth/death, xCELLigence and microscopy; assay type: cell-based; conditions: xCELLigence, concentration gradient
Description: To assess the growth inhibitory properties of compounds disclosed herein, 10 μM of Compound 1 was tested against a PBS mock treatment for growth of A549 cells using microscopy at the indicated timepoints shown in the top right corner of each panel of FIG. 2. […] First, 5,000 A549 cells were plated, and adherence and growth was measured for 20 hours using live measurements of current impedance through the plate using the xCELLigence™ instrument. At the […] mark, a concentration gradient of Compound 1 or a PBS control was added to the A549 cells, which were cultured in 100 μL DMEM media with 10% FBS.

primary fibroblasts = assay: Selective killing, Cytation imaging of primary fibroblasts; assay type: cell-based; conditions: 10 μM, approx. 5 minute time points
Description: To assess the specificity of compounds disclosed herein in targeting cancers with overexpression of RAD51, Compound 1 was tested against primary fibroblasts and SSP25 cells (cholangiocarcinoma cell line) (FIG. 5). First, 5,000 cells were incubated in 96-well culture plates overnight. Cells were grown in DMEM or RPMI, respectively, with 10% FBS, and […] was added to a concentration of 10 μM and imaging commenced using a Cytation™ instrument using approximately 5 minute time points. DAPI was used to visualize the nuclei and mitotracker-red was used to observe mitochondria. […] Furthermore, cell morphology was affected within 5 minutes of imaging, and the macrobubble phenotype was stable for further periods of time.

SSP25 cells = assay: xCELLigence cell death assay with intracellular calcium chelators; assay type: cell-based; conditions: relative to compound alone
Description: To investigate the hypothesis that peptide treatment of cells causes cell death via increases in intracellular free calcium levels, Compound 1 alone and in combination with two different intracellular calcium chelators (1,2-Bis(2-aminophenoxy)ethane-N,N,N′,N′-tetraacetic acid tetrakis(acetoxymethyl ester) aka “BAPTA-AM”, and ammoniated ruthenium oxychloride aka “ruthenium red”) was tested in an xCELLigence™ cell death assay as in Example 1. The intracellular calcium chelators alone were also evaluated on the cells.

A549 cells [2] = assay: Intracellular calcium imaging with Fluo-2-AM; assay type: cell-based; conditions: 30 μM compound, pre-incubation with 2.5 μM Fluo-2-AM
Text: Timestamps for the duration of the experiment are indicated in each panel.

[3] = Mouse pharmacokinetics, IV and IP dosing; assay type: in vivo, mice
Description: The pharmocokinetic parameters in mice by both intravenous (IV) and intraperitoneal (IP) dosing, as well as the serum and microsome stability for each of compound 22, 23, 24, and 25 was determined. Bioanalytical methods were developed for each compound using an LC-MS/MS method with LLOQ>100 ng/ml.
For in-vivo PK work, at least 3 mice were used per timepoint. For each compound, the animals were injected either IV or IP with the compound. IV injections used 1 mg/kg, and IP injections were at 15 mg/kg. Blood was collected at the indicated timepoints and analyzed according to the bioanalytical method developed.

A549 xenograft = A549 xenograft in athymic nude mice, compound 22; assay type: in vivo; conditions: 15 mpk IP every other day
Description: The anti-cancer activity of compound 22 was assessed in an A549 xenograft model in a method similar to Example 4. Briefly, A549 cells were implanted into athymic nude female mice. Tumors were allowed to grow to 100 mm^3 before initiation of dosing. Mice were randomly distributed into dosing groups with at least 3 animals per group. Mice were dosed using 15 mpk TP injections every other day.
Tumor volumes and mouse weights were recorded at the indicated timepoints. Terminal tumors were excised and weighed (N=3 for each group).

in vitro [4] = conditions: mouse, serum
Description: Serum stability data was obtained using the appropriate animal serum, each incubated with the compound for up to two hours at 37 C.

in vitro [5] = conditions: human, microsomes
Description: (§1) For HLM and MLM stability studies, each compound was incubated with the liver microsome mixture for up to an hour at 37 C in the presence of NADPH.
(§2) After the incubations, the reactions were stopped and the compounds were analyzed according to the method developed for each.

in vitro [6] = conditions: mouse, microsomes
Description: as §1, §2

CSCC[C@@H](NC(=O)[C@@H](CC(C)C)NC(C)=O)C(=O)N[C@H](CCCNC(=N)N)C(=O)N[C@H](CO)C(=O)N[C@H](CCC(N)=O)C(=O)N[C@H](CCCNC(=N)N)C(=O)N[C@H](CC(C)C)C(=O)N[C@H](CCCNC(=N)N)C(=O)N[C@H](CCC(N)=O)C(=O)NCC(=O)N[C@H](CC(C)C)C(=O)N[C@H](CCCNC(=N)N)C(=O)N[C@H](CCCCN)C(=O)N[C@H](CCCNC(=N)N)C(=O)N[C@H](CCCNC(=N)N)C(=O)N[C@H](CCCNC(=N)N)C(=O)N[C@H](CCCNC(=N)N)C(=O)N[C@H](CCCNC(=N)N)C(=O)N[C@H](CCCNC(=N)N)C(=O)N[C@H](CCCNC(=N)N)C(N)=O [Compound 2, Ac-lmrsqrlrqGlrkrrrrrrr-NH2]
IC50 (SSP-25 cells): 4220 µM
% Hemolysis (250 uM) (fresh human RBCs): 1%
effect on growth / cell death of A549 cells (A549 cells [1]): rapid cell death (decrease in cell index)
cell morphology / cell death in primary fibroblasts (primary fibroblasts): little cell death is generated in the primary fibroblast cells compared to the SSP25 cells
cell death with added calcium chelator BAPTA-AM (SSP25 cells; 10 μM compound + 10 μM BAPTA-AM): able to counteract the cell-death inducing effects
cell death with added calcium chelator ruthenium red (SSP25 cells; 10 μM compound + 40 μM Ruthenium red): able to counteract the cell-death inducing effects
intracellular calcium (Fluo-2 dye) (A549 cells [2]): shows accumulation in response to treatment

CCCC[C@@H](NC(=O)[C@@H](CC(C)C)NC(C)=O)C(=O)N[C@H](CCCNC(=N)N)C(=O)NCCC(=O)N[C@@H](C(=O)N[C@H](CCCNC(=N)N)C(=O)N[C@H](CC(C)C)C(=O)N[C@H](CCCNC(=N)N)C(=O)N[C@@H](C(=O)NCCC(=O)N[C@H](CC(C)C)C(=O)N[C@H](CCCNC(=N)N)C(=O)N[C@H](CCCCN)C(=O)N[C@H](CCCNC(=N)N)C(=O)N[C@H](CCCNC(=N)N)C(=O)N[C@H](CCCNC(=N)N)C(=O)N[C@H](CCCNC(=N)N)C(=O)N[C@H](CCCNC(=N)N)C(=O)NCC(=O)N[C@@H](Cc1ccc2ccccc2c1)C(N)=O)C(C)C)C(C)C [Compound 22, Ac-l{d-norLeucine}r[beta-ALA]vrlrv[beta-ALA]lrkrrrrrGΦ-NH2] (Ac-[dL][dNle][dR][βAla][dV][dR][dL][dR][dV][βAla][dL][dR][dK][dR][dR][dR][dR][dR]G[2Nal]-NH2)
IC50 (SSP-25 cells): 18 µM
% Hemolysis (250 uM) (fresh human RBCs): 5%
AUC Extr ([3]; 1 mg/kg IV): 19.8%
Vss ([3]; 15 mg/kg IP): 1.19 L/kg
AUC(0-inf) ([3]; in vivo, 1 mg/kg IV): 79.3 ng·h/mL
AUC(0-t) ([3]; in vivo, 1 mg/kg IV): 63.9 ng·h/mL
C0 ([3]; in vivo, 1 mg/kg IV): 514 ng/mL
MRT inf ([3]; in vivo, 1 mg/kg IV): 0.158 h
clearance ([3]; in vivo, 1 mg/kg IV): 222 mL/min/kg
AUC(0-inf) ([3]; in vivo, 15 mg/kg IP): 463 ng·h/mL
MRT inf ([3]; in vivo, 15 mg/kg IP): 48.3 h
half-life ([3]; in vivo, ip, 15 mg/kg, 15 mg/kg IP, read-out: t½ (converted)): 36.3 min
half-life ([3]; in vivo, ip, 15 mg/kg, IP (15 mg/kg), read-out: Half-life Mouse IP): 36.3 min
Vd ([3]; in vivo, iv, 1 mg/kg, 1 mg/kg IV, read-out: Vss): 1.87 L/kg
Vd ([3]; in vivo, iv, 1 mg/kg, 1 mg/kg IV, read-out: Vz): 2.04 L/kg
half-life ([3]; in vivo, iv, 1 mg/kg, 1 mg/kg IV, read-out: t½ (converted)): 7.14 min
half-life ([3]; in vivo, iv, 1 mg/kg, IV (1 mg/kg), read-out: Half-life Mouse IV): 7.16 min
tumor growth (A549 xenograft): effective to reduce tumor growth
half-life (in vitro [4]): > 500 min
half-life (in vitro [5]): 365 min
half-life (in vitro [6]): > 500 min
